Test results as given in PubChem BioAssay AID330 (DTP/NCI, 2004).
Values joined by “and” are separate entries in the source; they are usually repeats but may differ in a detail not shown here. Identical values can stand only once. Inconclusive results and toxic doses are left out. Rule for the calls: active = survival T/C of 150% or more; inactive = T/C below 125% in these data. Peptide text beside a SMILES is read from it. * marks the point of attachment. Boc = CC(C)(C)OC(=O)*; NHNH2 = NN*

Test system: P388 leukemia ip, CD2F1 mice, survival T/C
Test: NCI In Vivo Anticancer Drug Screen. Data for tumor model P388 Leukemia (intraperitoneal) in CD2F1 (CDF1) mice
Conditions: endpoint: median survival time, higher = longer survival
Method in brief: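 Mice carrying the transplanted tumor received test compound or vehicle. Survival was recorded in each group, and the value is the treated-group measurement divided by that of the vehicle-treated control group.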

[1] = dose: 100.0 mg/kg/injection, schedule: Q01DX009 (ip), vehicle: Klucel (hydroxypropylcellulose) (HPC)
[2] = dose: 50.0 mg/kg/injection, schedule: Q01DX009 (ip), vehicle: Klucel (hydroxypropylcellulose) (HPC)
[3] = dose: 200.0 mg/kg/injection, schedule: Q01DX009 (ip), vehicle: Klucel (hydroxypropylcellulose) (HPC)
[4] = dose: 50.0 mg/kg/injection, schedule: Q01DX005 (ip), vehicle: Klucel (hydroxypropylcellulose) (HPC)
[5] = dose: 50.0 mg/kg/injection, schedule: Q01DX009 (ip), vehicle: saline with Tween-80
[6] = dose: 100.0 mg/kg/injection, schedule: Q01DX009 (ip), vehicle: saline with Tween-80
[7] = dose: 200.0 mg/kg/injection, schedule: Q01DX009 (ip), vehicle: saline with Tween-80
[8] = dose: 50.0 mg/kg/injection, schedule: Q01DX009 (ip), vehicle: saline
[9] = dose: 100.0 mg/kg/injection, schedule: Q01DX009 (ip), vehicle: saline
[10] = dose: 12.5 mg/kg/injection, schedule: Q01DX009 (ip), vehicle: saline with Tween-80
[11] = dose: 25.0 mg/kg/injection, schedule: Q01DX009 (ip), vehicle: saline with Tween-80
[12] = dose: 12.5 mg/kg/injection, schedule: Q01DX005 (ip), vehicle: saline with Tween-80
[13] = dose: 25.0 mg/kg/injection, schedule: Q01DX005 (ip), vehicle: saline with Tween-80
[14] = dose: 50.0 mg/kg/injection, schedule: Q01DX005 (ip), vehicle: saline with Tween-80
[15] = dose: 100.0 mg/kg/injection, schedule: Q01DX005 (ip), vehicle: saline with Tween-80
[16] = dose: 60.0 mg/kg/injection, schedule: Q01DX005 (ip), vehicle: saline with Tween-80
[17] = dose: 120.0 mg/kg/injection, schedule: Q01DX005 (ip), vehicle: saline with Tween-80
[18] = dose: 240.0 mg/kg/injection, schedule: Q01DX005 (ip), vehicle: saline with Tween-80

Measured: T/C

NS(=O)(=O)c1ccc(Nc2c3ccccc3nc3cc(Cl)ccc23)cc1
inactive: dose: 6.25 mg/kg/injection, schedule: Q01DX009 (ip), vehicle: Klucel (hydroxypropylcellulose) (HPC) 98 % of control | dose: 12.5 mg/kg/injection, schedule: Q01DX009 (ip), vehicle: Klucel (hydroxypropylcellulose) (HPC) 98 % of control | dose: 25.0 mg/kg/injection, schedule: Q01DX009 (ip), vehicle: Klucel (hydroxypropylcellulose) (HPC) 90 % of control | [1] 86 % of control

O=C(O)CCSC(=S)NN1CCN(NC(=S)SCCC(=O)O)CC1
inactive: dose: 60.0 mg/kg/injection, schedule: Q01DX005 (ip), vehicle: Klucel (hydroxypropylcellulose) (HPC) 108 % of control | dose: 120.0 mg/kg/injection, schedule: Q01DX005 (ip), vehicle: Klucel (hydroxypropylcellulose) (HPC) 100 % of control | dose: 240.0 mg/kg/injection, schedule: Q01DX005 (ip), vehicle: Klucel (hydroxypropylcellulose) (HPC) 96 % of control

Cc1ccc(N2C(=O)CC3(CCCCC3)C2=O)c(C)c1
inactive: [2] 105 % of control | [1] 109 % of control | [3] 103 % of control

ClCc1nsc(Cl)n1
inactive: dose: 12.5 mg/kg/injection, schedule: Q01DX005 (ip), vehicle: Klucel (hydroxypropylcellulose) (HPC) 93 % of control | dose: 25.0 mg/kg/injection, schedule: Q01DX005 (ip), vehicle: Klucel (hydroxypropylcellulose) (HPC) 98 % of control | [4] 104 % of control and 93 % of control

CC(C)(C)NCC(O)COc1cccc2c1CCC(=O)N2 (centres undefined)
inactive: [5] 100 % of control | [6] 102 % of control | [7] 97 % of control

CCOC(=O)NNc1cccc(Cl)c1
inactive: [8] 100 % of control | [9] 100 % of control

CC1=NN(C(=O)c2ccncc2)C(=O)C1N=Nc1ccc(S(=O)(=O)Nc2ncccn2)cc1 (centres undefined)
inactive: [5] 95 % of control | [6] 91 % of control | [7] 92 % of control

O=S(=O)(c1ccccc1)C1CC=C(c2ccccc2)CNC1 (centres undefined)
inactive: dose: 50.0 mg/kg/injection, schedule: Q01DX001 (ip), vehicle: Klucel (hydroxypropylcellulose) (HPC) 99 % of control | dose: 100.0 mg/kg/injection, schedule: Q01DX001 (ip), vehicle: Klucel (hydroxypropylcellulose) (HPC) 98 % of control | dose: 200.0 mg/kg/injection, schedule: Q01DX001 (ip), vehicle: Klucel (hydroxypropylcellulose) (HPC) 98 % of control | dose: 400.0 mg/kg/injection, schedule: Q01DX001 (ip), vehicle: Klucel (hydroxypropylcellulose) (HPC) 100 % of control

COC(=O)C(F)C(Br)C(=O)OC (centres undefined)
inactive: [10] 111 % of control and 103 % of control | [11] 112 % of control and 105 % of control | [5] 123 % of control and 114 % of control and 115 % of control

COc1cccc2cc(-n3nnc4cc([N+](=O)[O-])ccc43)c(=O)oc12
inactive: [12] 95 % of control | [13] 93 % of control | [14] 92 % of control and 95 % of control | [15] 97 % of control | dose: 200.0 mg/kg/injection, schedule: Q01DX005 (ip), vehicle: saline with Tween-80 98 % of control

CC(C(=O)O)[As](=O)(O)O (centres undefined)
inactive: dose: 100.0 mg/kg/injection, schedule: Q04DX003 (ip), vehicle: saline 102 % of control | dose: 200.0 mg/kg/injection, schedule: Q04DX003 (ip), vehicle: saline 99 % of control | dose: 400.0 mg/kg/injection, schedule: Q04DX003 (ip), vehicle: saline 98 % of control

CC(C)(C)OC(=O)NC(Cc1c[nH]c2ccccc12)C(=O)NC(CS)C(=O)NN (stereo not drawn) (Boc-Trp-Cys-NHNH2; configuration not given here)
inactive: dose: 12.5 mg/kg/injection, schedule: Q01DX009 (ip), vehicle: other 90 % of control | dose: 25.0 mg/kg/injection, schedule: Q01DX009 (ip), vehicle: other 94 % of control | dose: 50.0 mg/kg/injection, schedule: Q01DX009 (ip), vehicle: other 88 % of control | dose: 100.0 mg/kg/injection, schedule: Q01DX009 (ip), vehicle: other 98 % of control | dose: 200.0 mg/kg/injection, schedule: Q01DX009 (ip), vehicle: other 94 % of control

O=[N+]([O-])c1cccnc1Sc1ccnc(Sc2ncccc2[N+](=O)[O-])n1
inactive: [5] 89 % of control | [8] 97 % of control | [9] 100 % of control and 96 % of control | [7] 89 % of control | dose: 200.0 mg/kg/injection, schedule: Q01DX009 (ip), vehicle: saline 89 % of control and 91 % of control

COC1C=CC23c4cc5c(cc4C(O)OC2CN(C)C3C1)OCO5 (centres undefined)
inactive: dose: 12.5 mg/kg/injection, schedule: Q01DX009 (ip), vehicle: saline 106 % of control | dose: 25.0 mg/kg/injection, schedule: Q01DX009 (ip), vehicle: saline 107 % of control | [8] 115 % of control | [9] 94 % of control

O=C(O)CN(CCN(CC(=O)O)CC(=O)O)CCN(CC(=O)O)CC(=O)O
inactive: [4] 103 % of control | dose: 100.0 mg/kg/injection, schedule: Q01DX005 (ip), vehicle: Klucel (hydroxypropylcellulose) (HPC) 108 % of control | [1] 91 % of control | dose: 200.0 mg/kg/injection, schedule: Q01DX005 (ip), vehicle: Klucel (hydroxypropylcellulose) (HPC) 103 % of control | [3] 94 % of control

CSC1=NC(C)(C)N=C(Oc2cc(Cl)cc(Cl)c2)N1
inactive: [16] 89 % of control | [17] 94 % of control | [18] 92 % of control

CC(=O)NC(Cc1c[nH]c2ccccc12)C(C)=O (centres undefined)
inactive: [11] 89 % of control | [5] 91 % of control | [6] 106 % of control | [7] 97 % of control

C=C1C(=O)OC(C)(C)C1c1ccc(Cl)c(Cl)c1 (centres undefined)
inactive: [2] 93 % of control | [1] 92 % of control | [3] 97 % of control

COC(=O)C12CC=CCC1(C(=O)OC)CC=CC2 (centres undefined)
inactive: [2] 101 % of control | [1] 100 % of control | [3] 102 % of control

COc1ccc(C)cc1NC(=O)ON=C1CCCCC1
inactive: [16] 95 % of control | [17] 94 % of control | [18] 100 % of control

O/N=C\C(=N/O)c1ccc(O)c(O)c1
inactive: dose: 100.0 mg/kg/injection, schedule: Q04DX002 (ip), vehicle: saline with Tween-80 107 % of control | dose: 200.0 mg/kg/injection, schedule: Q04DX002 (ip), vehicle: saline with Tween-80 108 % of control | dose: 400.0 mg/kg/injection, schedule: Q04DX002 (ip), vehicle: saline with Tween-80 102 % of control

O=C1[N-]C(=S)c2cccn21.O=C1[N-]C(=S)c2cccn21.[Pd+2]
inactive: [12] 103 % of control | [13] 103 % of control | [14] 99 % of control | [15] 99 % of control

CSC(=N\N=C(/C)c1ccc(Br)cc1)/N=C/N(C)C
inactive: [16] 100 % of control | [17] 102 % of control | [18] 102 % of control

CCCC1CC[N-]CC1.CCCC1CC[N-]CC1.[Cl][Pt+2]([Cl])([Cl])[Cl]
inactive: dose: 1.0 mg/kg/injection, schedule: Q01DX009 (ip), vehicle: saline with Tween-80 90 % of control | dose: 2.0 mg/kg/injection, schedule: Q01DX009 (ip), vehicle: saline with Tween-80 95 % of control | dose: 3.75 mg/kg/injection, schedule: Q01DX009 (ip), vehicle: saline with Tween-80 100 % of control | dose: 4.0 mg/kg/injection, schedule: Q01DX009 (ip), vehicle: saline with Tween-80 100 % of control | dose: 11.0 mg/kg/injection, schedule: Q01DX009 (ip), vehicle: saline with Tween-80 118 % of control | dose: 25.0 mg/kg/injection, schedule: Q04DX003 (ip), vehicle: saline with Tween-80 110 % of control | dose: 37.5 mg/kg/injection, schedule: Q01DX009 (ip), vehicle: saline with Tween-80 118 % of control | dose: 50.0 mg/kg/injection, schedule: Q04DX003 (ip), vehicle: saline with Tween-80 120 % of control | dose: 75.0 mg/kg/injection, schedule: Q04DX003 (ip), vehicle: saline with Tween-80 95 % of control

CC(C)NC(=O)CN1C(=O)NC(C)(c2ccccc2)C1=O (centres undefined)
inactive: [16] 101 % of control | [17] 95 % of control | [18] 94 % of control

CC(C)OC(=O)Nc1ccccc1Cl
inactive: [10] 104 % of control | [11] 100 % of control | [5] 109 % of control

CCCCC(C)N(CCNc1cc(OC)cc2cccnc12)CC(C)C (centres undefined)
inactive: dose: 12.5 mg/kg/injection, schedule: Q01DX005 (ip), vehicle: saline 106 % of control | dose: 25.0 mg/kg/injection, schedule: Q01DX005 (ip), vehicle: saline 101 % of control | dose: 50.0 mg/kg/injection, schedule: Q01DX005 (ip), vehicle: saline 106 % of control and 97 % of control
